Measurements as given in patent US20060183696A1, “Use of immune cell specific conjugates for treatment of inflammatory diseases of gastrointestinal tract” (Pliva-Istrazivacki Institut d.o.o., priority 2004, published 2006).
Read-outs that look alike come from different tables or passages of the source. Blank lines part the entries; values can stand above or below the compound they belong to.

Columns and labels:
TNBS induced colitis = assay: TNBS-induced inflammatory bowel disease (colitis) in rats; assay type: in vivo, rat
Method: Colitis is induced in male Wistar rats by intracolonic administration of 10-50 mg of TNBS in 0.25 ml of 50% ethanol. Two days prior to administration of TNBS animals are treated with various doses of sterolide (initially ranging from 0.5 to 10 mg/kg of the compound in 0.125% carboxymethyl cellulose in phosphate buffered saline and 1% DMSO) or vehicle control (0.125% carboxymethyl cellulose in phosphate buffered saline and 1% DMSO) or standard steroid such as for example budesonide (1 mg/kg) for 14 days after the TNBS is applied. Rats were sacrificed, blood samples werewere taken (at day 7 and 15 after application of TNBS) to obtain serum samples followed by macroscopic observation and histological evaluation to determine the degree of colonic inflammation. Macroscopic and histological evaluation of tissue damage was done blindly by pathologist. The criteria for assessing macroscopic damage and the numerical rating score are as follows: 0, no damage; 1, localized hyperemia and/or edema; 2, linear ulcer<half of the width of the colon; 3, linear ulcer>half of the width of the colon; 4, small circular ulcer (<1 cm); 5, circular ulcer between 1 and 2 cm; 6, circular ulcer>2 cm. Scores from individual animals were added together and divided by number of animals to get average […] damage. For histological evaluation of colonic injury, each colon is blindly scored according to the following criteria: A) Ulceration: 0, no ulcer, epithelization; 1, small ulcer<3 mm; 2, large ulcer>3 mm; B) Inflammation: 0, no inflammation; 1, mild; 2, moderate; 3, severe; C) Depth of lesion: 0, none; 1, submucosa; 2, muscularis propria; 3, serosa; D) Necrosis: 0, none; 1, mild; 2, severe; E) Granulomas: No, no granulomas; Yes, granulomas present. Maximum score, defined as a sum of all individual scores in this scoring system is 10+granulomas. In some experiments Lekotriene B4 (LTB4) and serum α1 acidic glycoprotein were also measured as an additional indicator of inflammatory activity. Likewise, in selected experiments full thickness specimens from inflamed tissue adjacent to the ulcerated area are excised for measurement of myeloperoxidase (MPO) activity.
Improvement in this experiment is defined by the lower average macroscopic damage and lower histological score, as well as lowering of LTBB4, serum α1 acidic glycoprotein and MPO activity in sterolide treated then in the group of […] (animals receiving vehicle alone).
FIG. 1A describes the macroscopic damage score of the colon in the rat model of TNBS induced colitis (Mann-Whitney Test). The macroscopic damage score of the colon is defined as 0—no damage; 1—localized hyperemia and/or edema; 2—linear ulcer<half of the width of the colon; 3—linear>half the width of the colon or small ulcer (<1 cm) 4—circular ulcer<1 cm; 5—circular between 1 and 2 cm; and 6—circular ulcer>2 cm. The compounds 1′, 2′ and 3′ as shown in the table below were compared against budesonide [a known drug useful for the treatment of Crohn's disease in humans] as a treatment control and just a vehicle as a no treatment control. The no treatment control gave a score of 4 while the treatment control, budesonide, at a dosage of 1 mg/kg gave a score of 2.
FIG. 1B describes effect of conjugates on histological damage score in TNBS induced colitis in rats (Mann-Whitney Test). The histological damage score is defined according to the following criteria: A) Ulceration: 0, no ulcer, epithelization; 1, small ulcer<3 mm; 2, large ulcer>3 mm; B) Inflammation: 0, no inflammation; 1, mild; 2, moderate; 3, severe; C) Depth of lesion: 0, none; 1, submucosa; 2, muscularis propria; 3, serosa; D) Necrosis: 0, none; 1, mild; 2, severe; E) Granulomas: No, no granulomas; Yes, granulomas present. Maximum score, defined as a sum of all individual scores in this scoring system is 10+granulomas. […]

in vivo [1] = details: male, BALB/CJ, mouse
Method: (§1) For I.N. and P.O. administration the substance was dissolved in DMSO. 0.5% methyl cellulose was added up to 100% of the total volume. The solution was applied in a volume of 10 ml/kg b.w. (P.O.) and 10 ml/kg b.w. (I.N.). For I.V. administration the substance was dissolved in DMF. PBS was added up to 100% of the total volume. The solution was applied in a volume of 5 ml/kg b.w. (I.V.)
(§2) The experiment was carried out on approximately eight week old male BALB/CJ mice (IFFA CREDO, Lyon, France), weighing ˜25 g. Animals were weighed, marked and grouped a day before the beginning of the study. After weighing each mouse was given an earmark and placed into a cage (5 mice per cage). […]
(§3) The concentration of the administered compound in biological matrices are calculated by the peak area ratios of compound 1 to an internal standard of roxithromycin using calibration curves and quality control samples.
(§4) Non-compartmental analysis was used for pharmacokinetic analysis in plasma and tissue. The pharmacokinetic parameters were calculated based on average values at each time point using WinNonlin Professional Software, Version 4.1 (Pharsight).
(§5) The pharmacokinetic parameters were calculated as disclosed herein to obtain the bioavailability wherein F=(AUC p.o.(0−∞)/AUC i.v.(0−∞))/(Di.v./Dp.o.).

[2] = Oral bioavailability in rats (p.o. vs i.v., HPLC/MS-MS); details: rat, in vivo
Method: (§6) Male Sprague-Dawley rats weighing approximately 200 g were used. After weighing, each rat was given an earmark and placed into a cage. The day before the beginning of the study, animals were randomly distributed into 5 groups with 5 rats/group and placed into solid bottom cages, on wood dust-free bedding (VRF-1 Rodent's diet, Altromin Gmbh). During the experiment, the rats were maintained on a 12-h light-dark cycle. The rats were weighed and fasted for 12 hours prior to p.o. administration.
(§7) Compound 5 was administered p.o. in 0.125% carboxymethyl cellulose suspension. The dissolved substance was administered oral at a dose of 30 mg/kg body weight (b.w.), using 2.5 mL syringe (BD) and metal gavage. The administered volume was 10 mL/kg b.w.
(§8) Plasma and blood samples were obtained at the following time points after administration: 15, 30, 60, 120, 240, 360 and 480 minutes.
(§9) Blood samples were collected by puncturing the lateral tail vein. Prior to each blood sampling, animals were maintained in warming cabinets at 37° C. for 15 minutes. At each sampling time-point 50 μL of blood were collected and added to an Eppendorf test tube (1.5 mL) containing 50 μL demi water. Blood was collected according the time points stated in the protocol. Specimens were stored at −20° C. until analysis.
(§10) The concentrations of a compound 5 in the biological matrices were determined by a high performance liquid chromatography method using an acetonitrile and water (acidified by 0.1% formic acid) gradient as the chromatographic medium with tandem mass spectrometry detection (HPLC/MS-MS) (Guidance for Industry, Bioanalytical Method Validation, U.S. Department of Health and Human Services, Food and Drug Administration, May 2001).
(§11) Biological samples were prepared by deproteinization with acetonitrile, containing an internal standard. After centrifugation and evaporation of the supernatant fraction, samples were reconstituted in acetonitrile:water with addition of 0.1% formic acid.
(§12) HPLC separation was performed on a reverse phase C18 analytical column (Phenomenex C18(2)m 50×2 mm (3 μm) No 182700-5) with a guard column, maintained at ambient temperature, using a gradient of water:acetonitrile [0 min-1 min 10% acetonitrile, 2.5-3.5 minutes 80% acetonitrile, 3.5-5.6 min 10% acetonitrile with addition of 0.1% formic acid at flow rate 0.3 ml/min
(§13) MS-MS detection was performed in multi-resolution mode (MRM).
(§14) The concentration of the administered compound in biological matrices are calculated by the peak area ratios of compound 5 to an internal standard of roxithromycin using calibration curves and quality control samples.
(§15) The pharmacokinetic parameters were calculated using the PK solutions 2.0 software (Summit Research Services, Pharmacokinetics and Metabolism Software).
(§16) The pharmacokinetic parameters were calculated as disclosed herein to obtain the bioavailability wherein F=(AUC p.o.(0−∞)/AUC i.v. (0−∞))/(Di.v./Dp.o.).

in vivo [3] = details: male, rat, po
Method: as §6, §7, §8, §9, §10, §11, §12, §13, §14, §15, §16

[4] = AUC of compounds tested in mice or rats; parameters: concentration or dose not given beside the values; details: in vivo, po
Method: The area under the curve (AUC) is calculated as: [formula] where n is the number of data points
AUC∞=AUC(0−t)+Cn/λz, where Cn is the last concentration and λz is the elimination rate constant (estimated from the later portion of the plasma/blood concentration vs. time profiles).

[5] = mouse, in vivo
Method: as §1, §2, §3, §4, §5

[6] = rat, in vivo; for Amounts detected in plasma and blood: po
Method: as §6, §7, §8, §9, §10, §11, §12, §13, §14, §15, §16

SMILES: CC[C@H]1OC(=O)[C@H](C)[C@@H](O[C@H]2C[C@@](C)(OC)[C@@H](O)[C@H](C)O2)[C@H](C)[C@@H](O[C@@H]2O[C@H](C)C[C@H](N(C)C)[C@H]2O)[C@](C)(O)C[C@@H](C)CN(CCCNC(=O)[C@@]2(O)[C@H](C)CC3C4CCC5=CC(=O)C=C[C@]5(C)[C@@]4(F)[C@@H](O)C[C@@]32C)[C@H](C)[C@@H](O)[C@]1(C)O (stereo partly shown) [2′]
efficacy on macroscopic damage score compared with budesonide (1 mg/kg) (TNBS induced colitis; FIG. 1A, 2 mg/kg): comparable or superior efficacy to that of the standard steroid budesonide | efficacy on histological damage score compared with budesonide (1 mg/kg) (TNBS induced colitis; FIG. 1B, 2 mg/kg): comparable or superior efficacy to that of the standard steroid budesonide | bioavailability (in vivo [1]): < 1%

bioavailability ([2]; male): 3.7% | AUC [2]: 2580 ng·h/mL | bioavailability [2]: < 10%
SMILES: CC[C@H]1OC(=O)[C@H](C)[C@@H](O[C@H]2C[C@@](C)(OC)[C@@H](O)[C@H](C)O2)[C@H](C)[C@@H](O[C@@H]2O[C@H](C)C[C@H](N(C)C)[C@H]2O)[C@](C)(O)C[C@@H](C)CN(CCCNC(=O)Cc2c(C)n(C(=O)c3ccc(Cl)cc3)c3ccc(OC)cc23)[C@H](C)[C@@H](O)[C@]1(C)O [3′]
efficacy on macroscopic damage score compared with budesonide (1 mg/kg) (TNBS induced colitis; FIG. 1A, 10 mg/kg): comparable or superior efficacy to that of the standard steroid budesonide | efficacy on histological damage score compared with budesonide (1 mg/kg) (TNBS induced colitis; FIG. 1B, 10 mg/kg): comparable or superior efficacy to that of the standard steroid budesonide

bioavailability ([2]; male): 6.9% | AUC [2]: 2180 ng·h/mL | bioavailability [2]: < 10%
SMILES: CC[C@H]1OC(=O)[C@H](C)[C@@H](O[C@H]2C[C@@](C)(OC)[C@@H](O)[C@H](C)O2)[C@H](C)[C@@H](O[C@@H]2O[C@H](C)C[C@H](N(C)C)[C@H]2O)[C@](C)(O)C[C@@H](C)CN(CCCNC(=O)c2cccnc2Nc2cccc(C(F)(F)F)c2C)[C@H](C)[C@@H](O)[C@]1(C)O [4′]

bioavailability ([2]; male): 2.5% | AUC [2]: 1130 ng·h/mL | bioavailability [2]: < 10%
SMILES: CC[C@H]1OC(=O)[C@H](C)[C@@H](O)[C@H](C)[C@@H](O[C@@H]2O[C@H](C)C[C@H](N(C)C)[C@H]2O)[C@](C)(O)C[C@@H](C)CN(CCCNC(=O)Cc2c(C)n(C(=O)c3ccc(Cl)cc3)c3ccc(OC)cc23)[C@H](C)[C@@H](O)[C@]1(C)O [9′]

SMILES: CC[C@H]1OC(=O)[C@H](C)[C@@H](OC2C[C@@](C)(OC)[C@@H](O)[C@H](C)O2)[C@H](C)C(O[C@@H]2O[C@H](C)C[C@H](N(C)C)[C@H]2O)[C@](C)(O)C[C@@H](C)CN(CCCNCCC(=O)O[C@]2(C(=O)OC)[C@H](C)CC3C4C[C@H](F)C5=CC(=O)C=C[C@]5(C)[C@@]4(F)[C@@H](O)C[C@@]32C)[C@H](C)[C@@H](O)[C@]1(C)O (stereo partly shown) [10′]
bioavailability (in vivo [3]): < 1%

bioavailability ([2]; male): < 1%
SMILES: CC[C@H]1OC(=O)[C@H](C)[C@@H](O[C@H]2C[C@@](C)(OC)[C@@H](O)[C@H](C)O2)[C@H](C)C(O[C@@H]2O[C@H](C)C[C@H](N(C)C)[C@H]2O)[C@](C)(O)C[C@@H](C)/C(=N\OCCCCCCNC(=O)CNS(=O)(=O)c2ccc(-n3nc(C(F)(F)F)cc3-c3ccc(C)cc3)cc2)[C@H](C)[C@@H](O)[C@]1(C)O (stereo partly shown) [11′]

SMILES: CCCC1O[C@@H]2C[C@H]3[C@@H]4CCC5=CC(=O)C=C[C@]5(C)[C@H]4[C@@H](O)C[C@]3(C)[C@]2(C(=O)CO)O1 (stereo partly shown) [Budesonide, budesonide, reference compound]
macroscopic damage score of the colon (TNBS induced colitis; FIG. 1A, 1 mg/kg, score 0-6, no treatment control 4): 2 | histological damage score (TNBS induced colitis; FIG. 1B, 1 mg/kg, maximum score 10, no treatment control 7,6): 4,5

SMILES: CC[C@H]1OC(=O)[C@H](C)[C@@H](O)[C@H](C)[C@@H](O)[C@](C)(O)C[C@@H](C)CN(CCCNCCC(=O)O[C@]2(C(=O)OC)[C@H](C)CC3C4C[C@H](F)C5=CC(=O)C=C[C@]5(C)[C@@]4(F)[C@@H](O)C[C@@]32C)[C@H](C)[C@@H](O)[C@]1(C)O (stereo partly shown) [Compound 1]
AUC [4]: 70 ng·h/mL | oral bioavailability [5]: not measurable

SMILES: CC[C@H]1OC(=O)[C@H](C)[C@@H](O)[C@H](C)[C@@H](O)[C@](C)(O)C[C@@H](C)CN(CCCNC(=O)[C@H]2[C@H](C)CC3C4CCC5=CC(=O)C=C[C@]5(C)[C@@]4(F)[C@@H](O)C[C@@]32C)[C@H](C)[C@@H](O)[C@]1(C)O (stereo partly shown) [Compound 1′]
efficacy on macroscopic damage score compared with budesonide (1 mg/kg) (TNBS induced colitis; FIG. 1A, 2 mg/kg): comparable or superior efficacy to that of the standard steroid budesonide | efficacy on histological damage score compared with budesonide (1 mg/kg) (TNBS induced colitis; FIG. 1B, 2 mg/kg): comparable or superior efficacy to that of the standard steroid budesonide | efficacy on macroscopic damage score compared with budesonide (1 mg/kg) (TNBS induced colitis; FIG. 2, dosages ranging from 4 mg/kg to 0.5 mg/kg): comparable or superior efficacy to that of the standard steroid budesonide

SMILES: CC[C@H]1OC(=O)C(C)[C@@H](O[C@H]2C[C@@](C)(OC)[C@@H](O)[C@H](C)O2)[C@H](C)[C@@H](O[C@@H]2O[C@H](C)C[C@H](N(C)C)[C@H]2O)[C@](C)(O)C[C@@H](C)/C(=N\OCCCCCNC(=O)[C@@]2(O)[C@H](C)CC3C4CCC5=CC(=O)C=C[C@]5(C)[C@@]4(F)[C@@H](O)C[C@]32C)[C@H](C)[C@@H](O)[C@]1(C)O (stereo partly shown) [Compound 5]
oral bioavailability ([6]; 30 mg/kg): not measurable | Amounts detected in plasma and blood ([6]; 30 mg/kg): below the limits of detection

SMILES: CC[C@H]1OC(=O)[C@H](C)C(OC2C[C@@](C)(OC)[C@@H](O)[C@H](C)O2)[C@H](C)[C@@H](O[C@@H]2O[C@H](C)C[C@H](N(C)CCCNC(=O)[C@]3(O)[C@H](C)CC4C5CCC6=CC(=O)C=C[C@]6(C)[C@@]5(F)[C@@H](O)C[C@@]43C)[C@H]2O)[C@](C)(O)C[C@H](C)CN(C)[C@H](C)[C@@H](O)[C@]1(C)O (stereo partly shown) [Compound 6]
AUC [4]: 400 ng·h/mL

SMILES: CC[C@H]1OC(=O)[C@H](C)[C@@H](O)[C@H](C)[C@@H](O)[C@](C)(O)C[C@@H](C)CN(CCCN(CC)CCC(=O)O[C@]2(C(=O)OC)[C@H](C)CC3C4C[C@H](F)C5=CC(=O)C=C[C@]5(C)[C@@]4(F)[C@@H](O)C[C@@]32C)[C@H](C)[C@@H](O)[C@]1(C)O (stereo partly shown) [Compound 8]
AUC [4]: 60 ng·h/mL

SMILES: CCCCN(CCCN1C[C@H](C)C[C@@](C)(O)[C@H](O)[C@@H](C)[C@H](O)[C@@H](C)C(=O)O[C@H](CC)[C@@](C)(O)[C@H](O)[C@H]1C)CCC(=O)O[C@]1(C(=O)OC)[C@H](C)CC2C3C[C@H](F)C4=CC(=O)C=C[C@]4(C)[C@@]3(F)[C@@H](O)C[C@@]21C (stereo partly shown) [Compound 9]
AUC [4]: 390 ng·h/mL

SMILES: CCCN(CCCN1C[C@H](C)C[C@@](C)(O)[C@H](O)[C@@H](C)[C@H](O)[C@@H](C)C(=O)O[C@H](CC)[C@@](C)(O)[C@H](O)[C@H]1C)CCC(=O)O[C@]1(C(=O)OC)[C@H](C)CC2C3C[C@H](F)C4=CC(=O)C=C[C@]4(C)[C@@]3(F)[C@@H](O)C[C@@]21C (stereo partly shown) [Compound 10]
AUC [4]: 60 ng·h/mL

SMILES: CC[C@H]1OC(=O)[C@H](C)[C@@H](O)[C@H](C)[C@@H](O)[C@](C)(O)C[C@@H](C)CN(CCCNC(=O)[C@H]2[C@H](C)CC3C4CCC5=CC(=O)C=C[C@]5(C)[C@@]4(F)[C@@H](O)C[C@@]32C)[C@H](C)[C@@H](O)[C@]1(C)O (stereo partly shown) [drawing 72]
oral bioavailability [6]: not measurable | Amounts detected in plasma and blood [6]: below the limits of detection
